Assay results from patent EP4545548B1, “INSECT NEUROPEPTIDES” (Solasta Bio Limited, priority 2023, dated 2025).
Where a SMILES comes first, the peptide text is derived from it. [ ]: non-standard residue; d: D form. pGlu = O=C1CC[C@@H](C(=O)O)N1

Test system: bees
Assay: Bee oral toxicity test adapted from OECD Test No. 247 (Bumblebee, Acute Oral Toxicity Test)
Format: in vivo
Settings: % survival after 96 hours, compared to Imidacloprid, Figure 9
Procedure: Bee oral testing protocol was carried out adapted from OECD Test No. 247: Bumblebee, Acute Oral Toxicity Test. The toxicity of SB-P-47 was compared with a negative control of sucrose or vehicle, and with a current commercial insecticide Imidacloprid.

CC[C@H](C)[C@H](NC(=O)[C@H](C)NC(=O)[C@@H]1CCC(=O)N1)C(=O)N[C@@H](CCSC)C(=O)N[C@@H](C)C(=O)N[C@@H](CCCNC(=N)N)C(=O)N1CCC[C@H]1C(=O)N[C@@H](CCC(N)=O)C(=O)N[C@H](C(=O)N1CCC[C@H]1C(=O)N[C@@H](CCCNC(=N)N)C(=O)N[C@@H](CC(C)C)C(N)=O)C(C)C [SB-P-47, [Pyr]-AIMARPQVPRL-[NH2]] ([pGlu]AIMARPQVPRL-NH2)
toxicity to key pollinator species such as bees: far lower toxicity
